# Measured values from patent publication US8927532B2, “Therapeutic agent and diagnostic agent for mitochondrial dysfunction brain diseases” (SBI Pharmaceuticals Co., Ltd., priority 2007, dated 2015).
# Test system: middle cerebral artery-occluded model rats
# Experiment: Fluorescence observation of brain disease site in cerebral infarction model rats
# Format: in vivo, rat
# Settings: 100 mg/kg i.p., 4 hours after administration
# Experimental: After 6 hours, 12 hours, 24 hours, and 42 hours from the preparation of middle cerebral artery-occluded model rats, δ-aminolevulinic acid hydrochloride was dissolved in physiological saline and intraperitoneally administered to the individual model rats in an amount of 100 mg/kg-body weight of rat. […] Moreover, it was confirmed that the red light site was in a cerebral infarction state.
smiles,measurement,value
Cl.NCC(=O)CCC(=O)O [δ-aminolevulinic acid hydrochloride],metabolism to protoporphyrin IX in the brain,metabolized and converted into protoporphyrin IX
